PubChem BioAssay (NCI)
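How tested: cells in 96-well plates exposed to compound for 48 hours at five concentrations. TGI denotes the concentration required for complete inhibition of growth.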

Key:
Test in all cases: NCI tumour cell line growth inhibition, 48 h
SK-MEL-5 melanoma = test system: SK-MEL-5 melanoma
NCI-H522 lung = test system: NCI-H522 lung
HCC-2998 colon = test system: HCC-2998 colon
MDA-MB-231 breast = test system: MDA-MB-231 breast
DU-145 prostate = test system: DU-145 prostate
NCI-H226 lung = test system: NCI-H226 lung
MALME-3M melanoma = test system: MALME-3M melanoma
SN12C renal = test system: SN12C renal
SW-620 colon = test system: SW-620 colon
HT29 colon = test system: HT29 colon

Cc1ccc(-c2cc(-c3ccc(Cl)cc3)nc(/N=C3\C(=O)N(CN4CCCCC4)c4ccc(Cl)cc43)n2)cc1
TGI (SK-MEL-5 melanoma): 48.1 µM
TGI (NCI-H522 lung): 27.8 µM
TGI (HCC-2998 colon): 29.7 µM
TGI (MDA-MB-231 breast): > 100 µM
TGI (DU-145 prostate): > 100 µM
TGI (NCI-H226 lung): > 100 µM
TGI (MALME-3M melanoma): > 100 µM
TGI (SN12C renal): 62.3 µM
TGI (SW-620 colon): > 100 µM
TGI (HT29 colon): > 100 µM
